Test results as given in ChEMBL document CHEMBL2406977, “The discovery of PLK4 inhibitors: (E)-3-((1H-Indazol-6-yl)methylene)indolin-2-ones as novel antiproliferative agents” (J Med Chem, 2013).
pIC50, pKi: −log10 of the molar value.

How the values were obtained:
[1] = Permeability of the compound at pH 7.4 by PAMPA; type: ADME; conditions: read-out: permeability
Cytochrome P450 2C9 = Cytochrome P450 2C9 (Homo sapiens, UniProt P11712); experiment: Inhibition of CYP2C9 (unknown origin) using MFC as substrate after 45 mins by fluorescence assay; type: ADME
Chain of Cytochrome P450 2C9 (P11712 whole entry): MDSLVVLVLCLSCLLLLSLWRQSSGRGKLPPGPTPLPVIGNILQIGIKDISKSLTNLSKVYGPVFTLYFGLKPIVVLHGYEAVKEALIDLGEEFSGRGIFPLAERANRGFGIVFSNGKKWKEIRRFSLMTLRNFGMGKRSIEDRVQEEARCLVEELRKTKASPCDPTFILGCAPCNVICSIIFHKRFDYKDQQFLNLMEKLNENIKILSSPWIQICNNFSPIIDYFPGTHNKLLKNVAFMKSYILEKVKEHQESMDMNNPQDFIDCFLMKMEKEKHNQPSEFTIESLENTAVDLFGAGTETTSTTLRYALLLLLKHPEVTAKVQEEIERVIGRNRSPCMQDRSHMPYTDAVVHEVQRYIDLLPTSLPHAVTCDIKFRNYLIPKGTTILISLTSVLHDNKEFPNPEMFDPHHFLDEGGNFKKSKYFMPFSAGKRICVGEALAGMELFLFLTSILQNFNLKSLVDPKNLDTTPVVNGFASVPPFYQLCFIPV

Cytochrome P450 2C19 = Cytochrome P450 2C19 (Homo sapiens, UniProt P33261); experiment: Inhibition of CYP2C19 (unknown origin) using MFC as substrate after 30 mins by fluorescence assay; type: ADME
Chain of Cytochrome P450 2C19 (P33261 whole entry): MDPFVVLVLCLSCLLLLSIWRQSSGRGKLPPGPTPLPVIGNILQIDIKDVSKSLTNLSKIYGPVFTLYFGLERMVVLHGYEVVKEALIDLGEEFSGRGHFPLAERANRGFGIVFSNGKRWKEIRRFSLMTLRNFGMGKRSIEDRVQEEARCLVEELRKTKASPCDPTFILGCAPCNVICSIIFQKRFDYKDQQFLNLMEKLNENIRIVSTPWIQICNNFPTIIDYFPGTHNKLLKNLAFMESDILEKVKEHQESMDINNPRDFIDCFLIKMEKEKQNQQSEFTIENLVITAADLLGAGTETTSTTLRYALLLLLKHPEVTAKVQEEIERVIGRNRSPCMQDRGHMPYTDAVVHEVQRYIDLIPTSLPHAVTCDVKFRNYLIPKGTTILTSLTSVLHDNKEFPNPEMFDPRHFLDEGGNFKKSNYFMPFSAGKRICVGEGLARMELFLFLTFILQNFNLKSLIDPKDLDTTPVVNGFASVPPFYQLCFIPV

Cytochrome P450 1A2 = target: T1, Cytochrome P450 1A2 (Homo sapiens, UniProt P05177); experiment: Inhibition of CYP1A2 (unknown origin) using CEC as substrate after 15 mins by fluorescence assay; type: ADME
T1 sequence (P05177 whole entry): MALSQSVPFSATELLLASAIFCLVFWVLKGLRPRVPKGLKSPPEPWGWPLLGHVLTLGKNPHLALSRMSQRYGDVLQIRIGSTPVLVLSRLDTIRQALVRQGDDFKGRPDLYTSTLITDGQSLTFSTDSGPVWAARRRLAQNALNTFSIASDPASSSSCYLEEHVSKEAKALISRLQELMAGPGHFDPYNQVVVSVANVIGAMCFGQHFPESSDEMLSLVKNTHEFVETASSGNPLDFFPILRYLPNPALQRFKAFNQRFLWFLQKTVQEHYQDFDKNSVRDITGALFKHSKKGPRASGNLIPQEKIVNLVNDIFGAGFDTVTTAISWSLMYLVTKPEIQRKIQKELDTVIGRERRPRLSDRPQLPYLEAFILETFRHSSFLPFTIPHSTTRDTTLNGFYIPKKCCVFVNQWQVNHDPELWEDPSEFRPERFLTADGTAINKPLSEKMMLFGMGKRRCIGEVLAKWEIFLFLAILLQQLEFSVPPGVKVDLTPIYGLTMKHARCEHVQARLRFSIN

Cytochrome P450 2D6 = Cytochrome P450 2D6 (Homo sapiens, UniProt P10635); experiment: Inhibition of CYP2D6 (unknown origin) using AMMC as substrate after 30 mins by fluorescence assay; type: ADME
Chain of Cytochrome P450 2D6 (P10635 whole entry): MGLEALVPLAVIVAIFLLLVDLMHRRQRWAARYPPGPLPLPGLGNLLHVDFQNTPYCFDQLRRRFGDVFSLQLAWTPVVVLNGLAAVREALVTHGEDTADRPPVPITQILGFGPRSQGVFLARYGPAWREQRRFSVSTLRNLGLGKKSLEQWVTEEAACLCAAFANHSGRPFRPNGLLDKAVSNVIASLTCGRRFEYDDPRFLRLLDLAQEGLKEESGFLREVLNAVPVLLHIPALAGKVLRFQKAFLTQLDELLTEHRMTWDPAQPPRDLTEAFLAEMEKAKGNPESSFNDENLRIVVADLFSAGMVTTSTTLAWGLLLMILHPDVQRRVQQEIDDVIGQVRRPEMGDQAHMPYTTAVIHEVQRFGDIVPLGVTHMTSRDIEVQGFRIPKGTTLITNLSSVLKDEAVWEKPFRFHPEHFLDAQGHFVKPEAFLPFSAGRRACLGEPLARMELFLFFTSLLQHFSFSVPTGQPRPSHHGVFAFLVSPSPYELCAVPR

Cytochrome P450 3A4 = Cytochrome P450 3A4 (Homo sapiens, UniProt P08684); experiment: Inhibition of CYP3A4 (unknown origin) after 10 mins by fluorescence assay; type: ADME
Chain of Cytochrome P450 3A4 (P08684 whole entry): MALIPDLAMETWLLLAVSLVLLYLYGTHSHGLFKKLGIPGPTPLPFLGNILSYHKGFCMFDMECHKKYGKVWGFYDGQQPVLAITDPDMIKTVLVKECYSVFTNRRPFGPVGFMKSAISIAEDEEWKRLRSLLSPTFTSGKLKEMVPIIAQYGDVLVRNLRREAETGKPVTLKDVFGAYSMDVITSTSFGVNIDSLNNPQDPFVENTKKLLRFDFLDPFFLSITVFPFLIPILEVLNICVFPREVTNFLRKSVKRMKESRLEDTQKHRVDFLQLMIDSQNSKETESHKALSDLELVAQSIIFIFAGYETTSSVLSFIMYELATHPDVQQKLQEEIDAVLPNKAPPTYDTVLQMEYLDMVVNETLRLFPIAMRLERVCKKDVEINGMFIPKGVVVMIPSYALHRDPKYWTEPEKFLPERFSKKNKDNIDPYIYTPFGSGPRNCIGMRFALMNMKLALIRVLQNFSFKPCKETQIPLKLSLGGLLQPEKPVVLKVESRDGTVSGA

MDA-MB-468 [2] = experiment: Cell cycle arrest in human MDA-MB-468 cells assessed as accumulation of 16N peaks at 1 uM after 2 days by FACS analysis; type: functional
MDA-MB-468 [3] = experiment: Cell cycle arrest in human MDA-MB-468 cells assessed as accumulation of 8N peaks at 1 uM after 2 days by FACS analysis; type: functional
MDA-MB-468 [4] = experiment: Cell cycle arrest in human MDA-MB-468 cells assessed as accumulation at G1 phase at 1 uM after 2 days by FACS analysis; type: functional
MDA-MB-468 [5] = experiment: Cell cycle arrest in human MDA-MB-468 cells assessed as accumulation of 16N peaks at 0.25 uM after 2 days by FACS analysis; type: functional
MDA-MB-468 [6] = experiment: Cell cycle arrest in human MDA-MB-468 cells assessed as accumulation at G1 phase at 0.25 uM after 2 days by FACS analysis; type: functional
MDA-MB-468 [7] = experiment: Cell cycle arrest in human MDA-MB-468 cells assessed as accumulation of 8N peaks at 0.25 uM after 2 days by FACS analysis; type: functional
MDA-MB-468 [8] = experiment: Cell cycle arrest in human MDA-MB-468 cells assessed as accumulation of 16N peaks at 0.5 uM after 2 days by FACS analysis; type: functional
MDA-MB-468 [9] = experiment: Cell cycle arrest in human MDA-MB-468 cells assessed as accumulation of 8N peaks at 0.5 uM after 2 days by FACS analysis; type: functional
MDA-MB-468 [10] = experiment: Cell cycle arrest in human MDA-MB-468 cells assessed as accumulation at G1 phase at 0.5 uM after 2 days by FACS analysis; type: functional
HCC1954 = experiment: Antiproliferative activity against human HCC1954 cells assessed as growth inhibition after 5 days by SRB assay; type: functional; conditions: HCC1954, 120 h
MDA-MB-231 = experiment: Antiproliferative activity against human MDA-MB-231 cells assessed as growth inhibition after 5 days by SRB assay; type: functional; conditions: MDA-MB-231, 120 h
SK-BR-3 = experiment: Antiproliferative activity against human SKBR3 cells assessed as growth inhibition after 5 days by SRB assay; type: functional; conditions: SK-BR-3, 120 h
MDA-MB-468 [11] = experiment: Antiproliferative activity against human MDA-MB-468 cells assessed as growth inhibition after 5 days by SRB assay; type: functional; conditions: MDA-MB-468, 120 h
MCF7 = experiment: Antiproliferative activity against human MCF7 cells assessed as growth inhibition after 5 days by SRB assay; type: functional; conditions: MCF7, 120 h
[12] = target: Serine/threonine-protein kinase PLK3 (Homo sapiens, UniProt Q9H4B4); experiment: Inhibition of PLK3 (unknown origin) by FRET-based homogeneous assay
Chain of Serine/threonine-protein kinase PLK3 (Q9H4B4 whole entry): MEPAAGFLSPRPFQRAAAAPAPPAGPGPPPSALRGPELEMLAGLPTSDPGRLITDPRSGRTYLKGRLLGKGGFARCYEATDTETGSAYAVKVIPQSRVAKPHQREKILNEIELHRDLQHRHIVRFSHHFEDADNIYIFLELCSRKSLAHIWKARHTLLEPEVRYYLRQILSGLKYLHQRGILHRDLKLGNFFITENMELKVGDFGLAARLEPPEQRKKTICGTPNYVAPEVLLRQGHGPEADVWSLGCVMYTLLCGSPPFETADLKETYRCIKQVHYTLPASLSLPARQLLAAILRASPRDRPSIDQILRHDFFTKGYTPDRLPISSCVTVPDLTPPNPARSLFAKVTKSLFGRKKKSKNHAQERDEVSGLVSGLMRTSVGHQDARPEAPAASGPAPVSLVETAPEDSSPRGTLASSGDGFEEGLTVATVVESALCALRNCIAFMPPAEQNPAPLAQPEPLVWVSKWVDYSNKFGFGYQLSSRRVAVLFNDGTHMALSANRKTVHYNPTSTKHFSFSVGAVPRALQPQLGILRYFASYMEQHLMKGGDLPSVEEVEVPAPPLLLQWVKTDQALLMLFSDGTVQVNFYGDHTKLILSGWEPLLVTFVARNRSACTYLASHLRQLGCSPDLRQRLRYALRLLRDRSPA

[13] = target: Serine/threonine-protein kinase PLK1 (Homo sapiens, UniProt P53350); experiment: Inhibition of PLK1 (unknown origin) by FRET-based homogeneous assay
Chain of Serine/threonine-protein kinase PLK1 (P53350 whole entry): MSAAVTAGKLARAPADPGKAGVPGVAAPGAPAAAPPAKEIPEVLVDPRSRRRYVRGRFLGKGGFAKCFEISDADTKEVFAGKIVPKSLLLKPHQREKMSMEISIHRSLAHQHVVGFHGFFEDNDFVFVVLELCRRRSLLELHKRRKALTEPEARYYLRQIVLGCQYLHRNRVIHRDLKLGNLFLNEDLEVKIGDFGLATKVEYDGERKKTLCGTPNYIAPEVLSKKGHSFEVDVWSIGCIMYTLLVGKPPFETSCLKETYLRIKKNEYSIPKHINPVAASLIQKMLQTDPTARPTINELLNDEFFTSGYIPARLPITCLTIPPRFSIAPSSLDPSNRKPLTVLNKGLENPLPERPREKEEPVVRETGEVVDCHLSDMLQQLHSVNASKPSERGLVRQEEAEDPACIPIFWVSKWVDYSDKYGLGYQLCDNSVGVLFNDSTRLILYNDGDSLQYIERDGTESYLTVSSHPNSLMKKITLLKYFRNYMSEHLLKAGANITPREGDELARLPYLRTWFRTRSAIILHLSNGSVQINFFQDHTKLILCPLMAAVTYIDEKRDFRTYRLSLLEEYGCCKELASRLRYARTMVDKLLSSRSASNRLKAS

[14] = target: Serine/threonine-protein kinase PLK2 (Homo sapiens, UniProt Q9NYY3); experiment: Inhibition of PLK2 (unknown origin) by FRET-based homogeneous assay
Chain of Serine/threonine-protein kinase PLK2 (Q9NYY3 whole entry, the tested form may be a part): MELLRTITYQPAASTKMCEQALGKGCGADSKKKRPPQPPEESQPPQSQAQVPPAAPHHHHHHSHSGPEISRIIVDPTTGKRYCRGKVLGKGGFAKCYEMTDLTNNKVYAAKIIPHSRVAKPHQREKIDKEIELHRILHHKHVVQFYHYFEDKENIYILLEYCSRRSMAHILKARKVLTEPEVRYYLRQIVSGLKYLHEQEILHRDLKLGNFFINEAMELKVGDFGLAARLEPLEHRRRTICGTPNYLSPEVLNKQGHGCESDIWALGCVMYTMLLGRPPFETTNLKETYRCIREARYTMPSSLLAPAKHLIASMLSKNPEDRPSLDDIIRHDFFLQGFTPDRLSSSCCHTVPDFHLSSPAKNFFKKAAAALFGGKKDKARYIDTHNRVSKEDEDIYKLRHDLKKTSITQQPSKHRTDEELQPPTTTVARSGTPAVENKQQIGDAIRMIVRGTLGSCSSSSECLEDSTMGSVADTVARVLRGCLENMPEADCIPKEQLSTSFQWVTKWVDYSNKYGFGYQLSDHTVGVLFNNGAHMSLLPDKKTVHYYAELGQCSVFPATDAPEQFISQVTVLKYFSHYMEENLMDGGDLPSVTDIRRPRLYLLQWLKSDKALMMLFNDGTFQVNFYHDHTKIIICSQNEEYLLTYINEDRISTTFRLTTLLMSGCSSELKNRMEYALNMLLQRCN

[15] = target: T2, Serine/threonine-protein kinase PLK4 (Homo sapiens, UniProt O00444); experiment: Inhibition of N-terminal GST-tagged human PLK4 (1 to 391 amino acids) expressed in Escherichia coli using TMB as substrate after 30 mins by indirect ELISA assay
T2 sequence (O00444 whole entry): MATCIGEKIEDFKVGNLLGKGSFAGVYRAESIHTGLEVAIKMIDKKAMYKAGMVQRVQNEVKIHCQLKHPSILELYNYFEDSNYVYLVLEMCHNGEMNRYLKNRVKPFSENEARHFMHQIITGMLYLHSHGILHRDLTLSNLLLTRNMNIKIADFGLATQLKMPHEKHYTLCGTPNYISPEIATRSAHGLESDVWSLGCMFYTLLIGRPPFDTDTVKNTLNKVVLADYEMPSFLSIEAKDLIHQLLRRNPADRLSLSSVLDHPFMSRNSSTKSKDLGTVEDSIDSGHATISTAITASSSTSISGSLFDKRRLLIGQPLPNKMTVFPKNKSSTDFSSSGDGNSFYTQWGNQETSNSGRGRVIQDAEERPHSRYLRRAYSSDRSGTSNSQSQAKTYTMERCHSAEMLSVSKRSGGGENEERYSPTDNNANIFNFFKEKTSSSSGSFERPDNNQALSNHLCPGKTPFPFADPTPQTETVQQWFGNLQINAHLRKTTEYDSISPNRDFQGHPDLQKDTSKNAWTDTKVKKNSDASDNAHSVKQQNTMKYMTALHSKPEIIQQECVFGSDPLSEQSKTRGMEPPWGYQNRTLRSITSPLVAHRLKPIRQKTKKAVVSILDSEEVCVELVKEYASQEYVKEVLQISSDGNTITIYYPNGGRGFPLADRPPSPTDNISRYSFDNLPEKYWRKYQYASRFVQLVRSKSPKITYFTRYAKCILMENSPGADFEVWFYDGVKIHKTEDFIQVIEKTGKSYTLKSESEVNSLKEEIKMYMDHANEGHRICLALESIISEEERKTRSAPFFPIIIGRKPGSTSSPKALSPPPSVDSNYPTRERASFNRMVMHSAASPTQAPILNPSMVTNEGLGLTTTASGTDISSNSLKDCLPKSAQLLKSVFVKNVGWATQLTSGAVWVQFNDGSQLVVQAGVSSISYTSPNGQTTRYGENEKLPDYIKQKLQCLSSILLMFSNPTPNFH

[16] = target: T2, Serine/threonine-protein kinase PLK4; experiment: Inhibition of human PLK4

SMILES | Papp [1] | pIC50 (Cytochrome P450 2C9) | pIC50 (Cytochrome P450 2C19) | pIC50 (Cytochrome P450 1A2) | pIC50 (Cytochrome P450 2D6) | pIC50 (Cytochrome P450 3A4) | GI50 (HCC1954) | GI50 (MDA-MB-231) | GI50 (SK-BR-3) | GI50 (MDA-MB-468 [11]) | GI50 (MCF7) | pIC50 [12] | pIC50 [13] | pIC50 [14] | pIC50 [15] | pKi [16] | further results
O=C1Nc2ccccc2/C1=C\c1ccc2c(/C=C/c3ccncc3)n[nH]c2c1 | 197 ×10⁻⁶ cm/s | 7.70 | 6.89 | < 5.00 | < 5.00 | 5.57 | 930 nM | 19000 nM | 25000 nM | 310 nM | 160 nM | < 5.00 | < 5.00 | < 5.00 | 8.27 |  | Activity (MDA-MB-468 [2]): 5.2%; Activity (MDA-MB-468 [3]): 32.5%; Activity (MDA-MB-468 [4]): 24.8%; Activity (MDA-MB-468 [5]): 1.7%; Activity (MDA-MB-468 [6]): 11.2%; Activity (MDA-MB-468 [7]): 11.85%; Activity (MDA-MB-468 [8]): 6%; Activity (MDA-MB-468 [9]): 34.3%; Activity (MDA-MB-468 [10]): 20.8%
CN(C)Cc1ccc(/C=C/c2n[nH]c3cc(/C=C4/C(=O)Nc5ccccc54)ccc23)cc1 | 276 ×10⁻⁶ cm/s | 5.89 | 6.00 | < 5.00 | 5.05 | 5.00 | 480 nM | 2 nM | 1900 nM | 10 nM | 10 nM | < 5.00 | < 5.00 | < 5.00 | 8.70 |  | 
COCCOc1ccc2cc1OCC(=O)N(C)CCCN(C)Cc1c[nH]c3ncnc(c13)N2 |  |  |  |  |  |  |  |  |  |  |  |  |  |  |  | 7.60 | 
COc1cc2c(cc1F)C(c1ccccc1Cl)=Nc1c(n[nH]c1C)N2 [RG-1530] |  |  |  |  |  |  |  |  |  |  |  |  |  |  |  | 7.96 | 
